Results published in the supplement of paper PMC6045584.
± gives the standard deviation of the averaged measurements.

Key:
TIOGUANINE = compound: Nc1nc2[nH]cnc2c(=S)[nH]1 [TIOGUANINE]; test: surviving fraction relative to DMSO-only wells; higher = less growth inhibition; settings: exposure time: 5 days
In short: (§1)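 At 250–500 cells per well in 384-well plates, log-phase tumour cell lines were seeded and, 24 hours on, exposed continuously for five days to inhibitors at 0.5, 1, 5, 10, 50, 100, 500 and 1000 nM. Viability readout was CellTiter-Glo luminescence, reported as surviving fraction normalised to the median of DMSO-only wells.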

SAPACITABINE = compound: CCCCCCCCCCCCCCCC(=O)Nc1ccn([C@@H]2O[C@H](CO)[C@@H](O)[C@@H]2C#N)c(=O)n1 [SAPACITABINE]; test: as above; settings: exposure time: 5 days
In short: as §1

| Test System | surviving fraction (TIOGUANINE; 0.5 nM) | surviving fraction (TIOGUANINE; 1 nM) | surviving fraction (TIOGUANINE; 5 nM) | surviving fraction (TIOGUANINE; 10 nM) | surviving fraction (TIOGUANINE; 50 nM) | surviving fraction (TIOGUANINE; 100 nM) | surviving fraction (TIOGUANINE; 500 nM) | surviving fraction (TIOGUANINE; 1000 nM) | surviving fraction (SAPACITABINE; 0.5 nM) | surviving fraction (SAPACITABINE; 1 nM) | surviving fraction (SAPACITABINE; 5 nM) | surviving fraction (SAPACITABINE; 10 nM) | surviving fraction (SAPACITABINE; 50 nM) | surviving fraction (SAPACITABINE; 100 nM) | surviving fraction (SAPACITABINE; 500 nM) | surviving fraction (SAPACITABINE; 1000 nM) |
| --- | --- | --- | --- | --- | --- | --- | --- | --- | --- | --- | --- | --- | --- | --- | --- | --- |
| 22RV1 PROSTATE | 0.97 ± 0.042 | 0.971 ± 0.042 | 0.99 ± 0.049 | 0.999 ± 0.0061 | 1.06 ± 0.067 | 0.99 ± 0.039 | 0.988 ± 0.079 | 0.94 ± 0.042 | 0.89 ± 0.094 | 1.06 ± 0.16 | 0.894 ± 0.042 | 0.8687 ± 0.0045 | 0.746 ± 0.12 | 0.692 ± 0.099 | 0.333 ± 0.029 | 0.199 ± 0.034 |
| 93VU HEADNECK | 0.831 ± 0.039 | 0.872 ± 0.088 | 1.03 ± 0.082 | 1.08 ± 0.094 | 1.06 ± 0.015 | 1.06 ± 0.11 | 0.798 ± 0.042 | 0.768 ± 0.081 | 0.75 ± 0.041 | 0.764 ± 0.051 | 0.862 ± 0.059 | 0.849 ± 0.16 | 1.02 ± 0.026 | 0.927 ± 0.049 | 0.74 ± 0.086 | 0.611 ± 0.017 |
| 143B BONE | 0.986 ± 0.015 | 1.01 ± 0.018 | 0.993 ± 0.025 | 0.999 ± 0.0071 | 0.9995 ± 0.0092 | 1.01 ± 0.028 | 0.904 ± 0.0014 | 0.707 ± 0.041 | 1.03 ± 0.067 | 1.05 ± 0.029 | 1.08 ± 0.069 | 1.06 ± 0.03 | 1.08 ± 0.047 | 1.12 ± 0.098 | 1.05 ± 0.079 | 0.942 ± 0.05 |
| A549 LUNG | 0.946 ± 0.045 | 0.955 ± 0.025 | 0.96 ± 0.046 | 0.952 ± 0.051 | 0.976 ± 0.045 | 0.999 ± 0.064 | 1.01 ± 0.038 | 0.973 ± 0.056 | 0.906 ± 0.026 | 0.906 ± 0.023 | 0.908 ± 0.021 | 0.906 ± 0.013 | 0.87 ± 0.022 | 0.666 ± 0.035 | 0.416 ± 0.001 | 0.308 ± 0.034 |
| ASKA SYNOVIAL | 1.07 ± 0.051 | 1.09 ± 0.058 | 1.13 ± 0.08 | 1.08 ± 0.032 | 1.1 ± 0.068 | 1.073 ± 0.007 | 1.07 ± 0.044 | 1.03 ± 0.011 | 0.917 ± 0.028 | 0.783 ± 0.0061 | 0.865 ± 0.024 | 0.327 ± 0.053 | 0.911 ± 0.043 | 0.688 ± 0.044 | 0.489 ± 0.01 | 0.203 ± 0.014 |
| BT20 BREAST | 1.02 ± 0.028 | 1.05 ± 0.12 | 1.07 ± 0.033 | 1.03 ± 0.048 | 1.12 ± 0.068 | 1.08 ± 0.081 | 0.958 ± 0.12 | 0.969 ± 0.18 | 0.764 ± 0.042 | 0.743 ± 0.021 | 0.679 ± 0.051 | 0.633 ± 0.11 | 0.515 ± 0.028 | 0.396 ± 0.025 | 0.211 ± 0.023 | 0.281 ± 0.051 |
| BT549 BREAST | 1.04 ± 0.17 | 1.05 ± 0.22 | 1.09 ± 0.12 | 1.12 ± 0.11 | 1.17 ± 0.14 | 0.917 ± 0.35 | 0.86 ± 0.42 | 0.996 ± 0.24 | 0.831 ± 0.065 | 0.869 ± 0.068 | 0.809 ± 0.027 | 0.695 ± 0.026 | 0.508 ± 0.022 | 0.367 ± 0.029 | 0.16 ± 0.044 | 0.125 ± 0.034 |
| CAL51 BREAST | 0.984 ± 0.03 | 0.965 ± 0.017 | 0.999 ± 0.018 | 1 ± 0.031 | 1.03 ± 0.049 | 1.06 ± 0.038 | 0.992 ± 0.051 | 0.979 ± 0.026 | 0.878 ± 0.1 | 0.838 ± 0.14 | 0.977 ± 0.074 | 0.929 ± 0.1 | 0.789 ± 0.0083 | 0.533 ± 0.13 | 0.112 ± 0.022 | 0.0657 ± 0.014 |
| CAL72 BONE | 1.08 ± 0.029 | 1.07 ± 0.027 | 1.09 ± 0.073 | 1.1 ± 0.056 | 1.14 ± 0.034 | 1.124 ± 0.0085 | 1.13 ± 0.029 | 1.13 ± 0.043 | 0.986 ± 0.07 | 0.951 ± 0.041 | 0.91 ± 0.058 | 0.798 ± 0.13 | 0.559 ± 0.049 | 0.369 ± 0.12 | 0.181 ± 0.039 | 0.128 ± 0.027 |
| CAL120 BREAST | 0.912 ± 0.028 | 0.943 ± 0.014 | 0.9412 ± 0.0032 | 0.919 ± 0.028 | 0.95 ± 0.021 | 0.939 ± 0.02 | 0.88 ± 0.035 | 0.826 ± 0.036 | 0.917 ± 0.028 | 0.901 ± 0.047 | 0.893 ± 0.081 | 0.876 ± 0.053 | 0.749 ± 0.06 | 0.631 ± 0.038 | 0.428 ± 0.01 | 0.3798 ± 0.0035 |
